# Measured values from patent US11058695B2, “Inhibitor of carbapenem-hydrolyzing class D beta-lactamases” (MYONGJI UNIVERSITY INDUSTRY AND ACADEMIA COOPERATION …, priority 2019, dated 2021).
# Like-named read-outs stand apart in the source and are kept apart here.
# Experiments:
# [1] = molecular target: OXA-240 (Pseudomonas aeruginosa, UniProt I6VVS5); assay: CHDL enzyme inhibition assay with nitrocefin; assay type: biochemical, P. aeruginosa; conditions: OXA-240 383 pM, 100 μM nitrocefin, 5 minute pre-incubation; read-out: IC50 against OXA-240
# Description: (§1) The screened 7 compounds were dissolved in 100% DMSO at 10 mM. More diluted stocks were prepared as necessary. OXA-48 activity was determined by monitoring the change of absorbance at 482 nm using the characteristic molecular extinction coefficient (Δε482=15,900 M^−1 cm^−1) of nitrocefin (Oxoid, Hampshire, UK) by a Shimazu UV-1650PC spectrophotometer. Up to 5% DMSO, no influence on the enzyme activity of OXA-48 was observed. The assays were conducted in 10 mM MES (pH 6.8) containing OXA-48 (103 pM), 50 mM NaHCO3, and 20 μg/mL bovine serum albumin. After 5 min of pre-incubation of the purified OXA-48 and each inhibitor at 30° C., the enzymatic reaction was started by adding nitrocefin (100 μM). Residual velocities were determined after 5 minutes. The first 120 s of each reaction was used to measure initial rates. Data were evaluated using Microsoft Excel. Concentration-dependent inhibition of OXA-48 was measured using different concentrations of seven compounds resulting from two-fold dilution series. Reaction progress at every concentration of seven compounds was measured in triplicates. IC50 values were calculated using 4-parameter log fits using XL Fit curve fitting software (www.idbs.com) for Excel using the following equation:
# (§2) [formula] where y is the remaining enzyme activity (in %) and x is the corresponding concentration. […]
# [2] = molecular target: OXA-48 (Klebsiella pneumoniae, UniProt Q6XEC0); assay: OXA-48 enzyme inhibition assay with nitrocefin; assay type: biochemical; conditions: OXA-48 103 pM
# Description: as §1, §2
# [3] = molecular target: OXA-210 (Pseudomonas aeruginosa, UniProt F6ME16); assay: CHDL enzyme inhibition assay with nitrocefin; assay type: biochemical
# Description: as §1
# (§3) [formula] where y is the remaining enzyme activity (in %) and x is the corresponding concentration. The fitted IC50 parameter is defined as the concentration giving a response half way between the fitted top (B) and bottom (A) of the curve.
# (§4) To investigate the inhibitory effects of the novel inhibitor (PLPBA) against eight CHDLs belonging to six clinically-important CHDL subgroups(member of OXA-23 subgroup: OXA-23; member of OXA-24/40 subgroup: OXA-24/40; member of OXA-48 subgroup: OXA-48; members of OXA-51 subgroup: OXA-51 and OXA-109; member of OXA-58 subgroup: OXA-97; member of OXA-143 subgroup: OXA-143) and five CHDLs belonging to four emerging CHDL subgroups (member of OXA-211 subgroup: OXA-211; members of OXA-229 subgroup: OXA-229 and OXA-418; member of OXA-210 subgroup: OXA-210; and member of OXA-240 subgroup: OXA-240), the IC50 values for them were determined (Table 3). PLPBA was dissolved in 100% DMSO at 10 mM. More diluted stocks were prepared as necessary. Activities of CHDLs were determined by monitoring the change of absorbance at 482 nm. Up to 5% DMSO, no influence on the enzyme activities of CHDLs was observed. Each enzyme (OXA-23, 418 pM; OXA-24/40, 134 pM; OXA-48, 103 pM; OXA-51, 184 nM; OXA-97, 178 pM; OXA-109, 168 nM; OXA-143, 96 pM; OXA-210, 179 pM; OXA-211, 701 pM; OXA-229, 142 pM; OXA-240, 383 pM; OXA-418, 158 pM) was mixed with 100 μM nitrocefin after a 5 minute pre-incubation with PLPBA. The first 120 s of each reaction was used to measure initial rates. Data were evaluated using Microsoft Excel. Reaction progress at every concentration of PLPBA was measured in triplicates.
# [4] = molecular target: OXA-24/40 (Acinetobacter baumannii, UniProt Q8RLA6); assay: CHDL enzyme inhibition assay with nitrocefin; assay type: biochemical
# Description: as §1, §3, §4
# [5] = molecular target: OXA-143 (Acinetobacter baumannii, UniProt D0UHC8); assay: CHDL enzyme inhibition assay with nitrocefin; assay type: biochemical; conditions: OXA-143 96 pM, 100 μM nitrocefin, 5 minute pre-incubation; read-out: IC50 against OXA-143
# Description: as §1, §3, §4
# [6] = molecular target: OXA-211 (Acinetobacter johnsonii, UniProt G9JKV7); assay: CHDL enzyme inhibition assay with nitrocefin; assay type: biochemical; conditions: OXA-211 701 pM, 100 μM nitrocefin, 5 minute pre-incubation; read-out: IC50 against OXA-211
# Description: as §1, §3, §4
# [7] = molecular target: OXA-229 (Acinetobacter bereziniae, UniProt I6S7G0); assay: CHDL enzyme inhibition assay with nitrocefin; assay type: biochemical; conditions: OXA-229 142 pM, 100 μM nitrocefin, 5 minute pre-incubation; read-out: IC50 against OXA-229
# Description: as §1, §3, §4
# [8] = molecular target: OXA-109 (Acinetobacter baumannii, UniProt A8JZR7); assay: CHDL enzyme inhibition assay with nitrocefin; assay type: biochemical; conditions: OXA-109 168 nM, 100 μM nitrocefin, 5 minute pre-incubation; read-out: IC50 against OXA-109
# Description: as §1, §3, §4
# [9] = molecular target: OXA-51 (Acinetobacter baumannii, UniProt Q5QT35); assay: CHDL enzyme inhibition assay with nitrocefin; assay type: biochemical; conditions: OXA-51 184 nM, 100 μM nitrocefin, 5 minute pre-incubation; read-out: IC50 against OXA-51
# Description: as §1, §3, §4
# [10] = molecular target: OXA-23 (Acinetobacter baumannii, UniProt Q9L4P2); assay: CHDL enzyme inhibition assay with nitrocefin; assay type: biochemical; conditions: OXA-23 418 pM, 100 μM nitrocefin, 5 minute pre-incubation; read-out: IC50 against OXA-23
# Description: as §1, §3, §4
# [11] = molecular target: OXA-97 (Acinetobacter baumannii, UniProt A5Y470); assay: CHDL enzyme inhibition assay with nitrocefin; assay type: biochemical; conditions: OXA-97 178 pM, 100 μM nitrocefin, 5 minute pre-incubation; read-out: IC50 against OXA-97
# Description: as §1, §3, §4
# Chain of OXA-48 (Q6XEC0 24-265 limits assumed, looked up): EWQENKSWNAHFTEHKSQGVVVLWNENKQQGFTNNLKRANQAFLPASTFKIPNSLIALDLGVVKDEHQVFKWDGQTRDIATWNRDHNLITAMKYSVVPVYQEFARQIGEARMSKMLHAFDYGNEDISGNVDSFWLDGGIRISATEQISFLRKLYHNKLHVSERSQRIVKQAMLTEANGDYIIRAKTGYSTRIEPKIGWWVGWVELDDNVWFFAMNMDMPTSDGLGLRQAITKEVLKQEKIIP
# Chain of OXA-97 (A5Y470 entry or part of it): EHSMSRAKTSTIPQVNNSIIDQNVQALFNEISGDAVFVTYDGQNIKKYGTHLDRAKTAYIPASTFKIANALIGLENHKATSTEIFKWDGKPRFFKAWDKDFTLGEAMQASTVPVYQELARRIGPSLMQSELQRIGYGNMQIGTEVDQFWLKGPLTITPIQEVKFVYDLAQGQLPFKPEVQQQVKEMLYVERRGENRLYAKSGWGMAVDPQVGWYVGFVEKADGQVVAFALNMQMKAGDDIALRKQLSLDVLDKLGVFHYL
# Chain of OXA-240 (I6VVS5 21-266 limits assumed): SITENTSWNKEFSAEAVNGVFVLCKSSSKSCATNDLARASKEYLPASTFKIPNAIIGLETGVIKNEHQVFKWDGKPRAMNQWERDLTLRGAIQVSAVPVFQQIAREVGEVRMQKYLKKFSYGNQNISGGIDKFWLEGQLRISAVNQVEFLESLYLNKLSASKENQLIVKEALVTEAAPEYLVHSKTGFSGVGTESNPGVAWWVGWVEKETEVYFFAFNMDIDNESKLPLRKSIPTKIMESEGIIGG
# Chain of OXA-143 (D0UHC8 entry or part of it): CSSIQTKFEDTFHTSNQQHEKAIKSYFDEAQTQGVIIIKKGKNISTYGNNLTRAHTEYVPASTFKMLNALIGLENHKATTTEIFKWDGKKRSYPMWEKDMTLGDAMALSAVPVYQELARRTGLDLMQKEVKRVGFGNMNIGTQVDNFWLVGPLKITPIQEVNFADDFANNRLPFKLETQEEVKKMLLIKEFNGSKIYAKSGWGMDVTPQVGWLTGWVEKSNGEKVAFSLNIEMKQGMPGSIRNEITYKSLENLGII
# Chain of OXA-211 (G9JKV7 entry or part of it): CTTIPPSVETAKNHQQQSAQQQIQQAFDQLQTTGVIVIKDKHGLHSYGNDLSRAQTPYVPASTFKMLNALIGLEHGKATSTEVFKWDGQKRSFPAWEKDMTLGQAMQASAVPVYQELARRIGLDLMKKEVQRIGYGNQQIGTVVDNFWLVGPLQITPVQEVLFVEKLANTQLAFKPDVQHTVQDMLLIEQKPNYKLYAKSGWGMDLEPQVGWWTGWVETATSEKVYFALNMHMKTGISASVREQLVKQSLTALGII
# Chain of OXA-23 (Q9L4P2 31-273 limits assumed): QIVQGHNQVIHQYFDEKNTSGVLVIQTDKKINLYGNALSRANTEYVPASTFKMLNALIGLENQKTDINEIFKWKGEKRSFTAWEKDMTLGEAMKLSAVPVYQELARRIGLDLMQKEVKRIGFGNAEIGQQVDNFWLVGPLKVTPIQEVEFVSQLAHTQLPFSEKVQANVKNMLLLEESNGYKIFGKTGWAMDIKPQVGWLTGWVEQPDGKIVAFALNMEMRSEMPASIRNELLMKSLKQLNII
# Chain of OXA-229 (I6S7G0 entry or part of it): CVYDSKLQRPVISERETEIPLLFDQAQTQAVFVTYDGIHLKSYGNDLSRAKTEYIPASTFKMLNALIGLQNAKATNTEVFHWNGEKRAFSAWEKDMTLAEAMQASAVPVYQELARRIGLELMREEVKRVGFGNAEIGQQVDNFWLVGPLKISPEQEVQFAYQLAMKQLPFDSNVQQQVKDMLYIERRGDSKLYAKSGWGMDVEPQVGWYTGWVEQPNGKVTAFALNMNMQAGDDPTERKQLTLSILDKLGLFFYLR
# Chain of OXA-24/40 (Q8RLA6 entry or part of it): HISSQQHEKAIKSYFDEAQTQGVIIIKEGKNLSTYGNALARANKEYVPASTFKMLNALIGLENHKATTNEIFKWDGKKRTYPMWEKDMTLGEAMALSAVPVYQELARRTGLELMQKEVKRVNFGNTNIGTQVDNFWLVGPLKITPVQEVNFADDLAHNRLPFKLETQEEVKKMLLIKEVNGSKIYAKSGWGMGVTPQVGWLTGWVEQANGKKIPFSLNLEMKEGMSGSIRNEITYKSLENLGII
# Chain of OXA-210 (F6ME16 entry or part of it): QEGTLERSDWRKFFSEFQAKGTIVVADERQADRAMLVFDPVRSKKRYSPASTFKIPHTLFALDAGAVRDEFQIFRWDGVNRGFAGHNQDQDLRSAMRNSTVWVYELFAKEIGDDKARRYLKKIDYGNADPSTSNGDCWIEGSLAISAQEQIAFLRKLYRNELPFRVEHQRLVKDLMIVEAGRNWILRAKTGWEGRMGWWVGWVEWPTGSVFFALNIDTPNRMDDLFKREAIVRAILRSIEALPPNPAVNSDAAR
# Chain of OXA-109 (A8JZR7 entry or part of it): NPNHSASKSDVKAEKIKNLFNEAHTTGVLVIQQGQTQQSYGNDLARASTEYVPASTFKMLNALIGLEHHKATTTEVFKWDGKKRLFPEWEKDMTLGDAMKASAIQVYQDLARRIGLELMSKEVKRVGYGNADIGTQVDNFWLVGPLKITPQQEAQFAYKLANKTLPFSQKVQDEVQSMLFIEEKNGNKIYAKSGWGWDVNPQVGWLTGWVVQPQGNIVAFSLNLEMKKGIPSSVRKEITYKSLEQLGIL
# Chain of OXA-51 (Q5QT35 entry or part of it): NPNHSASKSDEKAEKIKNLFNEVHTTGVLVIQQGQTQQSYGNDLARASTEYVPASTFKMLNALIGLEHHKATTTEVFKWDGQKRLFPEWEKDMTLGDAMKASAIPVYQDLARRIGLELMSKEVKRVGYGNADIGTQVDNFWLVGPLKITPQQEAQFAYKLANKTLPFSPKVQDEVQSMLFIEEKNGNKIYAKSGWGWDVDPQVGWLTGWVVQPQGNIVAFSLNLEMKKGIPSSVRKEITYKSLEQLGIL
smiles,measurement,setting,value
"OB(O)c1cccc(OCCc2ccccc2)c1 [Compound 1, [3-(2-Phenylethoxy)phenyl]boronic Acid]",IC50,[1],218.59 ± 0.03 µM
same,IC50,"[2]; nitrocefin 100 μM, 5 min pre-incubation at 30° C., 10 mM MES pH 6.8, read-out: IC50 values on OXA-48 of the screened compounds",155 µM
same,IC50,"[2]; Table 3, 100 μM nitrocefin, 5 minute pre-incubation, read-out: IC50 against OXA-48",154.84 ± 0.02 µM
same,IC50,[3],218.79 ± 0.02 µM
same,IC50,[4],384.73 ± 0.02 µM
same,IC50,[5],91.79 ± 0.01 µM
same,IC50,[6],238.51 ± 0.01 µM
same,IC50,[7],171.93 ± 0.01 µM
same,IC50,[8],864.59 ± 0.02 µM
same,IC50,[9],594.73 ± 0.01 µM
same,IC50,[10],275.54 ± 0.02 µM
same,IC50,[11],189.02 ± 0.01 µM
